Experimental data from PMC11004395 (Saudi Pharmaceutical Journal : SPJ, 2024).
pIC50: −log10 of the molar value.

Biological target: bovine xanthine oxidase (BXO) (Bos taurus, UniProt P80457)
Experiment: XO inhibitory assay, double enzyme detection
Type: biochemical
Conditions: read-out: IC50 of moderately active compounds, moderate activities (Fig. 6)

Sequence of bovine xanthine oxidase (BXO) (P80457 whole entry): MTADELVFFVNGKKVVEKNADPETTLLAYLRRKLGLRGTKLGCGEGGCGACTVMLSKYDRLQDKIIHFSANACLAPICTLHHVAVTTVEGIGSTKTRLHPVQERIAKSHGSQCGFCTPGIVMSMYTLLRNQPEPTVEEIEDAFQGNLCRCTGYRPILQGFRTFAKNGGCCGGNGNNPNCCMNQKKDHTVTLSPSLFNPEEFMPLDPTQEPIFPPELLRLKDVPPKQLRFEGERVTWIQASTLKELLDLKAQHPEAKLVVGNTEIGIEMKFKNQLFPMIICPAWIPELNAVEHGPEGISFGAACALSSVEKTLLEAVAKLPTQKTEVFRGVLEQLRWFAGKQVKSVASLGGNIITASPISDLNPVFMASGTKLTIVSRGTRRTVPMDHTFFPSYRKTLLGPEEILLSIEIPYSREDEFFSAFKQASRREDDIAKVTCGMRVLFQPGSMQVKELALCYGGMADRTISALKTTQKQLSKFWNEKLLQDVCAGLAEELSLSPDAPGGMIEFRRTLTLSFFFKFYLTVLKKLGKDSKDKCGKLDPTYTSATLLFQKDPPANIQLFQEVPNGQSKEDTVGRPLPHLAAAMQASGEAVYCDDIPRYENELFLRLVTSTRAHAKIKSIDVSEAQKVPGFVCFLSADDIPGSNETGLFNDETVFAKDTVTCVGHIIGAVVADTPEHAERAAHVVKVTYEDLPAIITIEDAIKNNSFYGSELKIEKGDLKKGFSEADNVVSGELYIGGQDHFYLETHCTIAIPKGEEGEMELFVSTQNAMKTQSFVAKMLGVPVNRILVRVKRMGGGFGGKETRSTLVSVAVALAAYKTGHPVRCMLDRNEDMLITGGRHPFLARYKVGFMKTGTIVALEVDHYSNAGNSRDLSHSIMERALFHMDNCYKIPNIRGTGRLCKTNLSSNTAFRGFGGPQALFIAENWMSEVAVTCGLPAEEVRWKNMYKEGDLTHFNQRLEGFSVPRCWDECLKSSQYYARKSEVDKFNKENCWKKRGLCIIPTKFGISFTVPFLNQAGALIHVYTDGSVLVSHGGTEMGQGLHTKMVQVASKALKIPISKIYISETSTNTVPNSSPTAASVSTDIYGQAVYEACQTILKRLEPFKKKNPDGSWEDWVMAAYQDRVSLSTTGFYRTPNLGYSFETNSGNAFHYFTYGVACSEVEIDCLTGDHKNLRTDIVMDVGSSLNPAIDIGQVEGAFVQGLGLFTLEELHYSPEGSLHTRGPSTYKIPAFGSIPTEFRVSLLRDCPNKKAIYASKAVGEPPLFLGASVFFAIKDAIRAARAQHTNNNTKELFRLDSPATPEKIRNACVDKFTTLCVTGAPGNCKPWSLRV

pIC50: ≥ 3.58
Structure (SMILES): O=[N+]([O-])c1ccc(C=Nn2c(Cn3nnc4ccccc43)n[nH]c2=S)cc1 [Compound 8, 3-((1H-Benzo[d][1,2,3]triazol-1-yl)methyl)-4-((4-nitrobenzylidene)amino)-1H-1,2,4-triazole-5(4H)-thione]
